What all share (assay): NCI anticancer screen, dose series, 48 h
For test [1], the system named is ACHN renal.
Test [2] has as its system HCC-2998 colon.
Test [3] relates to KM12 colon.
In test [4] the test system is MALME-3M melanoma.
Test [5] deals with NCI-H23 lung.
Test [6] relates to SF-295 CNS.
The subject of test [7] is SK-OV-3 ovarian.
In test [8] the test system is SNB-19 CNS.
For test [9], the system named is SNB-75 CNS.
Test [10] has as its system U251 CNS.

The results in this text go back to PubChem BioAssay (NCI).

Structures are written as SMILES. Values joined by “and” are separate entries in the source; they are usually repeats but may differ in a detail not shown here. Equal values may be shown once.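 Cells were grown in 96-well plates and exposed to each compound for 48 hours at five concentrations; endpoints were interpolated linearly between bracketing concentrations, or set to the highest concentration if not reached. The concentration for 50% growth inhibition is given as GI50. TGI is the concentration that stops growth completely.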 Bounds are passed on as bounds.

On to `CC(=O)O[C@H]1C(N(C)C(=O)c2ccccc2)CC[C@]2(C)C3CC[C@@]4(C)C(CC(O)[C@@H]4C(C)N(C)C)[C@@H]3CCC12` (some centres not stated), for which the TGI in test [1], in [2], in [3], in test [4], in test [5] and in [6] was greater than 100 µM throughout. Also, the TGI in test [7], in test [8], in test [9] and in test [10] was greater than 100 µM throughout.
Consider `COc1cc(-c2cnn(C)c2)ccc1Nc1ncc2ccnc(N[C@@H](C)C(C)(C)C)c2n1`, for which the GI50 in [1] is 4.29 µM; in [2] it was greater than 100 µM; in test [3] it was 1.51 µM; in test [4], greater than 66 µM; in test [5], greater than 53.7 µM; in [6], greater than 63.3 µM. Further, the GI50 in test [7] is greater than 68.1 µM; in test [8], greater than 82.3 µM; in test [9], 3.26 µM; in [10] it was greater than 55.8 µM. For the same compound, the TGI in test [1], in [2], in test [3], in test [4], in test [5] and in test [6] was greater than 100 µM each time. In addition, the TGI in [7], in test [8], in test [9] and in test [10] was greater than 100 µM each time.
As to `Cc1ccc(C(=O)c2oc3ccc4c(C)cc(=O)oc4c3c2C)cc1`, the GI50 in test [1] is 3.65 µM; in [2], 24 µM; in test [3], 63.3 µM; in test [4], 25.7 µM; in test [5], 27.3 µM; in [6] it was 2.19 µM. The GI50 was 18 µM in test [7], 5.98 µM in test [8], 4.19 µM in test [9] and 3.64 µM in test [10]. Besides, the TGI was 94.3 µM in [1]; greater than 100 µM in test [2]; greater than 100 µM in [3]; greater than 100 µM in test [4]; greater than 100 µM in [5]; 30.2 µM in [6]. Further, the TGI in test [7] was greater than 100 µM; in [8] it was greater than 100 µM; in test [9], 39.4 µM; in [10] it was greater than 100 µM.
`COc1cc2nc(-c3ccc(C(F)(F)F)cc3)cc(OCCCN3CCOCC3)c2cc1OC`: the GI50 in [1] was 2.01 µM; in test [2], 1.41 µM; in test [3], 3.42 µM; in test [4], 1.38 µM; in [5], 2.36 µM; in [6], 0.349 µM. Besides, the GI50 in test [7] is 5.04 µM; in test [8] it was 2.91 µM; in test [9] it was 2.46 µM; in test [10], 1.4 µM. Further, the TGI in [1] is 18.2 µM; in test [2], 5.57 µM; in test [3] it was 22 µM; in test [4], 3.77 µM; in test [5], 12 µM; in test [6] it was 1.68 µM. For the same compound, the TGI in test [7] was found to be 22.4 µM; in test [8], 13.6 µM; in [9], 9.51 µM; in test [10], 14.3 µM.
In the case of `O=c1oc2ccccc2c(O)c1/C=N\c1nc(-c2ccccc2)cs1`, the TGI in test [1] was 24 µM; in test [2], greater than 100 µM; in test [3], 39.1 µM; in test [4], 27.3 µM; in test [5], 46.9 µM; in [6], 69.2 µM. Further, the TGI was greater than 100 µM in [7], 62.4 µM in test [8], 21.6 µM in test [9] and 24.9 µM in [10].
For the compound `COc1cc(OC)c(/C=C/c2ccc3ccccc3[n+]2C)c(OC)c1`, the GI50 was 4.32 µM in [1]; 0.811 µM in [2]; 0.322 µM in [3]; 0.691 µM in test [4]; 0.686 µM in test [5]; 0.549 µM in [6]. Moreover, the GI50 is 1.37 µM in [7], 0.375 µM in [8], 0.586 µM in test [9] and 0.323 µM in test [10]. In addition, the TGI in test [1] is greater than 75.5 µM; in test [2], 5.6 µM; in [3] it was 1.99 µM; in [4], 5.38 µM; in [5] it was 12.2 µM; in [6] it was 4.25 µM. Also, the TGI stood at 26 µM in test [7], 14.8 µM in test [8], 12.4 µM in test [9] and 8.97 µM in [10].
`CN1CCN(CCSC2Cc3cc(Cl)ccc3Sc3ccccc32)CC1` (configuration not stated): the TGI is 19.8 µM in test [1]; 15.3 µM in [2]; 20.1 µM in test [3]; 5.8 µM in test [4]; 23.6 µM in test [5]; 15.6 µM in test [6]. The TGI in test [7] was determined as 32.5 µM; in [8], 33.9 µM; in [9] it was 15.7 µM; in test [10], 19.1 µM.
With `COC(=O)CCC/C=C\C[C@H]1C=CC(=O)/C1=C/C[C@@H](O)CCc1cccc(C(F)(F)F)c1`, the GI50 is 1.83 µM in test [1]; 1.83 µM in test [2]; 1.9 µM in test [3]; 2.47 µM in [4]; 2.03 µM in test [5]; 2.12 µM in test [6]. The GI50 in [7] was 4.94 µM; in [8], 4.04 µM; in test [9], 5.46 µM; in [10], 2.06 µM. Besides, the TGI stood at 3.54 µM in test [1]; 3.35 µM in test [2]; 4.23 µM in [3]; 8.1 µM in test [4]; 5.18 µM in test [5]; 5.21 µM in test [6]. For the same compound, the TGI in [7] stood at 16.5 µM; in test [8], 16.6 µM; in test [9], 18.9 µM; in [10], 4.96 µM.
Regarding `O=C1C(Br)=C[C@H]2C3C=CC(Br)(C3=O)[C@@H]12` (some centres not stated), the TGI was determined as 34.3 µM in test [1]; 26.2 µM in [2]; 24.4 µM in test [3]; 26.2 µM in [4]; 25 µM in test [5]; 51 µM in test [6]. In addition, the TGI in test [7] was greater than 100 µM; in [8], 32.6 µM; in [9] it was 92.8 µM; in test [10], 27.3 µM.
Regarding `NC(=O)c1c[se]c(C2OC(CO)C(O)C2O)n1` (configuration not stated), the TGI is greater than 100 µM in test [1]; greater than 100 µM in test [2]; greater than 45 µM in test [3]; greater than 100 µM in [4]; greater than 100 µM in test [5]; greater than 49.8 µM in test [6]. Further, the TGI in [7], in test [8], in test [9] and in test [10] was greater than 100 µM in each case.
For `Cc1cc(S(=O)(=O)Nc2nc(N)nc(N3N=CCC3C)n2)c(S)cc1Cl` (configuration not stated), the TGI in test [1], in test [2], in [3], in test [4], in test [5] and in test [6] was greater than 10 µM throughout. The TGI in test [7], in test [8], in test [9] and in [10] was greater than 10 µM each time.
In the case of `Clc1nc(Oc2ccccc2)nc(-c2cn(-c3ccccc3)c3ccccc23)n1`, the GI50 in [1] is 8.16 µM; in test [2], 13.8 µM; in [3] it was 7.51 µM; in test [4], 1.89 µM; in [5] it was 7.31 µM; in [6], greater than 44.7 µM. In addition, the GI50 is 18.9 µM in test [7], 19 µM in test [8], 13.7 µM in [9] and 2.53 µM in test [10]. Also, the TGI in test [1] was 21.1 µM; in [2], 27.3 µM; in test [3], 19.9 µM; in test [4] it was 4.82 µM; in test [5], 22.4 µM; in [6], greater than 61 µM. In addition, the TGI in [7] was 40.3 µM; in test [8] it was 35.8 µM; in test [9], 26.6 µM; in [10] it was 6.36 µM.
Regarding `CCC(=O)c1cn(C)c(=O)c2ccccc12`, the TGI in [1], in test [2], in [3], in [4], in test [5] and in [6] was greater than 100 µM each time. The TGI in [7], in test [8], in test [9] and in test [10] was greater than 100 µM each time.
For `COc1cc2c(cc1OCc1ccccc1)N=C[C@@H]1C/C(=C/C(=O)NCCCN3C(=O)c4cccc5cccc(c45)C3=O)CN1C2=O`, the GI50 in test [1] was 3.82 µM; in test [2] it was 0.142 µM; in [3] it was 1.09 µM; in test [4], 0.272 µM; in test [5] it was 0.352 µM; in [6], 0.63 µM. For the same compound, the GI50 is 8.35 µM in [7], 0.348 µM in test [8], 0.877 µM in test [9] and 0.444 µM in test [10]. For the same compound, the TGI in test [1] was greater than 61.4 µM; in test [2], 1.26 µM; in test [3], 6.59 µM; in test [4], 1.06 µM; in test [5], 1.89 µM; in [6], 9.49 µM. Also, the TGI was 33.5 µM in test [7], greater than 56.7 µM in [8], 3.66 µM in test [9] and greater than 100 µM in test [10].
`COc1cc(C2c3cc4c(cc3[C@@H](Nc3ccc(C(=O)O)cc3)C3COC(=O)[C@H]23)OCO4)cc(OC)c1O` (some centres not stated): the TGI was greater than 100 µM in test [1]; 53.8 µM and > 17.5 µM in test [2]; 68.5 µM and > 17.5 µM in test [3]; 47.9 µM and > 17.5 µM in [4]; 31.1 µM and > 17.5 µM in test [5]; greater than 100 µM in test [6]. In addition, the TGI in test [7] is greater than 100 µM; in test [8] it was greater than 100 µM; in test [9], 27.6 µM and > 17.5 µM; in test [10], 53 µM and > 17.5 µM. Besides, the GI50 was 34.4 µM and 15.3 µM in [7]; 12.6 µM and 6.13 µM in test [10].
On to `Cc1cc2nc3c(=O)n(C)c(=O)nc-3n(-c3ccc(Cl)cc3)c2cc1C`, for which the TGI was 24.7 µM in test [1]; 20.4 µM in [2]; greater than 100 µM in test [3]; 22.3 µM in [4]; 26.2 µM in test [5]; 26.1 µM in [6]. The TGI in test [7] was determined as 67.4 µM; in test [8] it was 47 µM; in test [9], 24.4 µM; in [10], 29.9 µM.
Turning to `CCOC(=O)[C@@H](C)C[C@H](Cc1ccccc1)NC(=O)c1csc([C@@H](C[C@H](C(C)C)N(C)C(=O)[C@@H](NC(=O)[C@H]2C[C@H](O[Si](C)(C)C(C)(C)C)CCN2C)C(C)C)OC(C)=O)n1`, the GI50 is 0.427 µM in test [1]; 0.182 µM in test [2]; 0.241 µM in [3]; 0.215 µM in test [4]; 0.333 µM in [5]; 0.249 µM in test [6]. For the same compound, the GI50 in test [7] is 0.198 µM; in test [8], 0.299 µM; in test [9] it was 0.205 µM; in [10], 0.319 µM. In addition, the TGI in test [1] was greater than 8.33 µM; in [2], 0.69 µM; in test [3] it was greater than 8.33 µM; in test [4] it was greater than 8.33 µM; in test [5], greater than 8.33 µM; in [6], 3.41 µM. In addition, the TGI in [7] was greater than 8.33 µM; in test [8] it was greater than 8.33 µM; in [9] it was 0.76 µM; in [10], greater than 4.18 µM.
As for `O=[N+]([O-])c1ccc2[nH]cc(-c3c4ccsc4cc4[nH]c5ccc([N+](=O)[O-])cc5c34)c2c1`, the GI50 was 1.52 µM in [1]; 1.88 µM in test [2]; 0.77 µM in test [3]; 0.898 µM in test [4]; 1.21 µM in test [5]; 0.629 µM in [6]. Besides, the GI50 in test [7] is 1.25 µM; in test [8], 1.32 µM; in test [9], 0.618 µM; in [10], 1.1 µM. Moreover, the TGI was 14.9 µM in test [1]; 6.27 µM in test [2]; 4.21 µM in test [3]; 9.44 µM in test [4]; 5.62 µM in test [5]; 3.09 µM in [6]. The TGI was found to be 7.21 µM in [7], 9.13 µM in test [8], 3.03 µM in test [9] and 16.6 µM in test [10].
